Experiments:
[1] = molecular target: T1, alpha2C adrenergic receptors (Homo sapiens, UniProt P18825); test: Receptor Selection and Amplification Technology (RSAT) assay, alpha2C; format: cell-based; settings: for EC50: NA = not active at concentrations less than 10 micromolar, read-out: Alpha 2C EC50; for Alpha 2C intrinsic activity: fraction of maximal effect of standard full agonist brimonidine (UK14304)
T1 construct: expressed in transfected cells; host or cells: NIH-3T3
T1 sequence (P18825 1-462): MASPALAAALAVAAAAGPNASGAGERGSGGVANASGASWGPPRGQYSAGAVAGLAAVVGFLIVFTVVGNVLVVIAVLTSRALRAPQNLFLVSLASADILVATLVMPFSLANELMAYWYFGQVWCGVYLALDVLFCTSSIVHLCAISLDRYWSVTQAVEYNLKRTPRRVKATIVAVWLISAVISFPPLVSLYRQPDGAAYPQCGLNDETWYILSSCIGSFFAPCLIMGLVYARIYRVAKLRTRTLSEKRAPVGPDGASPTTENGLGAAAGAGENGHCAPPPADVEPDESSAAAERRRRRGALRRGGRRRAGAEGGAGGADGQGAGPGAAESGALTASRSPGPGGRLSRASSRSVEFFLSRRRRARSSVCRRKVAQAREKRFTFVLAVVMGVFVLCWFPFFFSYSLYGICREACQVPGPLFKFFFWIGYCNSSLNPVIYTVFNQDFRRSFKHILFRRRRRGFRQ
Excerpt: (§1) The imidazole-2-thione compounds of the invention are agonists of alpha2 adrenergic receptors, particularly they tend to be specific or selective agonists of alpha2B and/or to a lesser extent alpha2C adrenergic receptors, in preference over alpha2A adrenergic receptors. […] Al., 1995, Pharmacol. Toxicol. 76, pp. 308-311 (incorporated herein by reference) and is also described below. Another reference pertinent to this assay is Conklin et al. (1993) Nature 363:274-6, also incorporated herein by reference.
(§2) Receptor Selection and Amplification Technology (RSAT) Assay
(§3) The RSAT assay measures a receptor-mediated loss of contact inhibition that results in selective proliferation of receptor-containing cells in a mixed population of confluent cells. The increase in cell number is assessed with an appropriate transfected marker gene such as β-galactosidase, the activity of which can be easily measured in a 96-well format. Receptors that activate the G protein, Gq, elicit this response. Alpha2 receptors, which normally couple to Gi, activate the RSAT response when coexpressed with a hybrid Gq protein that has a Gi receptor recognition domain, called Gq/i5.
(§4) NIH-3T3 cells are plated at a density of 2×10^6 cells in 15 cm dishes and maintained in Dulbecco's modified Eagle's medium supplemented with 10% calf serum. One day later, cells are cotransfected by calcium phosphate precipitation with mammalian expression plasmids encoding p-SV-β-galactosidase (5-10 μg), receptor (1-2 μg) and G protein (1-2 μg). 40 μg salmon sperm DNA may also be included in the transfection mixture. Fresh media is added on the following day and 1-2 days later, cells are harvested and frozen in 50 assay aliquots. Cells are thawed and 100 μl added to 100 μl aliquots of various concentrations of drugs in triplicate in 96-well dishes. Incubations continue 72-96 hr at 37 EC. After washing with phosphate-buffered saline, β-galactosidase enzyme activity is determined by adding 200 μl of the chromogenic substrate (consisting of 3.5 mM o-nitrophenyl-β-D-galactopyranoside and 0.5% nonidet P-40 in phosphate buffered saline), incubating overnight at 30 EC and measuring optical density at 420 nm. The absorbance is a measure of enzyme activity, which depends on cell number and reflects a receptor-mediated cell proliferation. The EC50 and maximal effect of each drug at each alpha2 receptor is determined. The efficacy or intrinsic activity is calculated as a ratio of the maximal effect of the drug to the maximal effect of a standard full agonist for each receptor subtype. Brimonidine, also called UK14304, the chemical structure of which is shown below, is used as the standard agonist for the alpha2A, alpha2B and alpha2C receptors.
(§5) The results of the RSAT assay with several exemplary compounds of the invention are disclosed in Table 1 above together with the chemical formulas of these examplary compounds. […] NA stands for “not active” at concentrations less than 10 micromolar. As is known EC50 is the concentration at which half of a given compound's maximal activity is observed.

[2] = molecular target: T2, alpha2B adrenergic receptors (Homo sapiens, UniProt P18089); test: Receptor Selection and Amplification Technology (RSAT) assay, alpha2B; format: cell-based; settings: for EC50: NA = not active at concentrations less than 10 micromolar, read-out: Alpha 2B EC50; for Alpha 2B intrinsic activity: fraction of maximal effect of standard full agonist brimonidine (UK14304)
T2 construct: expressed in transfected cells; host or cells: NIH-3T3
T2 sequence (P18089 1-450): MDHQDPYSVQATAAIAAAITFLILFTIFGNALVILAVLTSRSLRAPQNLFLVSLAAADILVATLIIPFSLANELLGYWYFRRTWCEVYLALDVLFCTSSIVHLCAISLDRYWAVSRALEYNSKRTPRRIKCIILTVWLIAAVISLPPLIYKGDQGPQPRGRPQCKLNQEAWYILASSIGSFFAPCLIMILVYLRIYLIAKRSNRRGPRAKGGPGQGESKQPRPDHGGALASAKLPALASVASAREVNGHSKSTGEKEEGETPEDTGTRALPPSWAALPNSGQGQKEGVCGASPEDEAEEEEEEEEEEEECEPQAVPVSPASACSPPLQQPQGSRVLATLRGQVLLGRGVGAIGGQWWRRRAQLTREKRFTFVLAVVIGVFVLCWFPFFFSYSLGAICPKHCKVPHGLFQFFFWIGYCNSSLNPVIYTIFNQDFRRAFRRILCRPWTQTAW
Excerpt: as §1, §2, §3, §4, §5

S=c1[nH]cc(CC2CCC3=C2CCCC3)[nH]1 (stereo not drawn)
EC50 [1]: 602 nM | Alpha 2C intrinsic activity [1]: 0.55 | EC50 [2]: 30 nM | Alpha 2B intrinsic activity [2]: 1.06

S=c1[nH]cc(CC2CCCc3ccccc32)[nH]1 (stereo not drawn)
EC50 [1]: 137 nM | Alpha 2C intrinsic activity [1]: 0.42 | EC50 [2]: 24 nM | Alpha 2B intrinsic activity [2]: 0.93

CC1=CCCCC1Cc1c[nH]c(=S)[nH]1 (stereo not drawn)
EC50 [1]: 677 nM | Alpha 2C intrinsic activity [1]: 1.13 | EC50 [2]: 85 nM | Alpha 2B intrinsic activity [2]: 1.07

CCC1=CCCCC1Cc1c[nH]c(=S)[nH]1 (stereo not drawn)
EC50 [1]: 331 nM | Alpha 2C intrinsic activity [1]: 1.0 | EC50 [2]: 161 nM | Alpha 2B intrinsic activity [2]: 1.0

CC1Cc2ccccc2C1Cc1c[nH]c(=S)[nH]1 (stereo not drawn)
EC50 [1]: > 2000 nM | Alpha 2C intrinsic activity [1]: 0.57 | EC50 [2]: 578 nM | Alpha 2B intrinsic activity [2]: 1.1

CC1CC(Cc2c[nH]c(=S)[nH]2)c2ccccc21 (stereo not drawn)
EC50 [1]: 1020 nM | Alpha 2C intrinsic activity [1]: 1.39 | EC50 [2]: 33 nM | Alpha 2B intrinsic activity [2]: 1.01

S=c1[nH]cc(CC2C=CCCC2)[nH]1 (stereo not drawn)
EC50 [1]: > 2000 nM | Alpha 2C intrinsic activity [1]: 0.70 | EC50 [2]: 665 nM | Alpha 2B intrinsic activity [2]: 1.12

Cc1ccc(C)c2c1CC(c1c[nH]c(=S)[nH]1)C2
EC50 [1]: 92 nM | Alpha 2C intrinsic activity [1]: 0.86 | EC50 [2]: 7 nM | Alpha 2B intrinsic activity [2]: 1.27

Cc1c(Cl)ccc2c1CC(c1c[nH]c(=S)[nH]1)C2 (stereo not drawn)
EC50 [1]: 561 nM | Alpha 2C intrinsic activity [1]: 0.45 | EC50 [2]: 14 nM | Alpha 2B intrinsic activity [2]: 0.91

S=c1[nH]cc(C2Cc3ccc(Cl)c(Cl)c3C2)[nH]1 (stereo not drawn)
EC50 [1]: 190 nM | Alpha 2C intrinsic activity [1]: 0.53 | EC50 [2]: 7 nM | Alpha 2B intrinsic activity [2]: 1

S=c1[nH]cc(C2Cc3cccc(I)c3C2)[nH]1 (stereo not drawn)
EC50 [1]: 101 nM | Alpha 2C intrinsic activity [1]: 0.49 | EC50 [2]: 7 nM | Alpha 2B intrinsic activity [2]: 0.96

Fc1ccc2c(c1)C(Cc1c[nH]c(=S)[nH]1)CC2 (stereo not drawn)
EC50 [1]: 42 nM | Alpha 2C intrinsic activity [1]: 0.63 | EC50 [2]: 34 nM | Alpha 2B intrinsic activity [2]: 1.01

Fc1cc2c(cc1F)C(Cc1c[nH]c(=S)[nH]1)CC2 (stereo not drawn)
EC50 [1]: 662 nM | Alpha 2C intrinsic activity [1]: 0.38 | EC50 [2]: 354 nM | Alpha 2B intrinsic activity [2]: 0.363

S=c1[nH]cc(C2Cc3cccc(Cl)c3C2)[nH]1 (stereo not drawn)
EC50 [1]: 45 nM | Alpha 2C intrinsic activity [1]: 0.74 | EC50 [2]: < 2 nM | Alpha 2B intrinsic activity [2]: 1.15

S=c1[nH]cc(CC2CCc3c(Br)cccc32)[nH]1 (stereo not drawn)
EC50 [1]: 168 nM | Alpha 2C intrinsic activity [1]: 0.59 | EC50 [2]: 87 nM | Alpha 2B intrinsic activity [2]: 0.73

S=c1[nH]cc(CC2CCCc3cccnc32)[nH]1 (stereo not drawn)
EC50 [1]: 2820 nM | Alpha 2C intrinsic activity [1]: 0.46 | EC50 [2]: 236 nM | Alpha 2B intrinsic activity [2]: 1.07

Cc1ccc(C2=CCCC2Cc2c[nH]c(=S)[nH]2)cc1 (stereo not drawn)
EC50 [1]: > 3000 nM | Alpha 2C intrinsic activity [1]: 0.46 | EC50 [2]: 2180 nM | Alpha 2B intrinsic activity [2]: 0.47

COc1ccc(C2=CCCC2Cc2c[nH]c(=S)[nH]2)cc1 (stereo not drawn)
EC50 [1]: 568 nM | Alpha 2C intrinsic activity [1]: 0.47 | EC50 [2]: > 3000 nM | Alpha 2B intrinsic activity [2]: 0.56

N#Cc1ccc(C2=CCCC2Cc2c[nH]c(=S)[nH]2)cc1 (stereo not drawn)
EC50 [1]: 155 nM | Alpha 2C intrinsic activity [1]: 1.01 | EC50 [2]: 498 nM | Alpha 2B intrinsic activity [2]: 0.91

O=[N+]([O-])c1cccc(C2=CCCC2Cc2c[nH]c(=S)[nH]2)c1 (stereo not drawn)
EC50 [1]: 2510 nM | EC50 [2]: > 10000 nM

Fc1cccc(C2=CCC[C@H]2Cc2c[nH]c(=S)[nH]2)c1
EC50 [1]: 916 nM | Alpha 2C intrinsic activity [1]: 0.37 | EC50 [2]: 191 nM | Alpha 2B intrinsic activity [2]: 0.53

Fc1cc(F)cc(C2=CCC[C@H]2Cc2c[nH]c(=S)[nH]2)c1
EC50 [1]: 790 nM | Alpha 2C intrinsic activity [1]: 0.58 | EC50 [2]: 472 nM | Alpha 2B intrinsic activity [2]: 0.83

Fc1ccc(C2=CCC[C@@H]2Cc2c[nH]c(=S)[nH]2)cc1
EC50 [1]: 131 nM | Alpha 2C intrinsic activity [1]: 0.72 | EC50 [2]: 269 nM | Alpha 2B intrinsic activity [2]: 0.97

Fc1cc(F)cc(C2=CCC[C@@H]2Cc2c[nH]c(=S)[nH]2)c1
EC50 [1]: 569 nM | Alpha 2C intrinsic activity [1]: 0.68 | EC50 [2]: 1600 nM | Alpha 2B intrinsic activity [2]: 0.59

Fc1ccc(C2=CCCC2Cc2c[nH]c(=S)[nH]2)cc1 (stereo not drawn)
EC50 [1]: 152 nM | Alpha 2C intrinsic activity [1]: 0.77 | EC50 [2]: 459 nM | Alpha 2B intrinsic activity [2]: 0.68

Fc1ccc(C2=CCCC2Cc2c[nH]c(=S)[nH]2)cc1F (stereo not drawn)
EC50 [1]: 205 nM | Alpha 2C intrinsic activity [1]: 0.68 | EC50 [2]: 225 nM | Alpha 2B intrinsic activity [2]: 0.44

S=c1[nH]cc(CC2CCC=C2c2ccc(Cl)s2)[nH]1 (stereo not drawn)
EC50 [1]: 2760 nM | Alpha 2C intrinsic activity [1]: 0.75 | EC50 [2]: 1100 nM | Alpha 2B intrinsic activity [2]: 0.69

Fc1ccc(C2=CCCC2Cc2c[nH]c(=S)[nH]2)c(F)c1 (stereo not drawn)
EC50 [1]: 290 nM | Alpha 2C intrinsic activity [1]: 0.62 | EC50 [2]: 219 nM | Alpha 2B intrinsic activity [2]: 0.42

S=c1[nH]cc(CC2CCC=C2c2cccs2)[nH]1 (stereo not drawn)
EC50 [1]: 611 nM | Alpha 2C intrinsic activity [1]: 0.42 | EC50 [2]: 234 nM | Alpha 2B intrinsic activity [2]: 0.53

CCC1=C(c2ccc(F)cc2)C(Cc2c[nH]c(=S)[nH]2)CC1 (stereo not drawn)
EC50 [1]: 40 nM | Alpha 2C intrinsic activity [1]: 0.52 | EC50 [2]: 103 nM | Alpha 2B intrinsic activity [2]: 0.97

CCCC1=C(c2ccc(F)cc2)C(Cc2c[nH]c(=S)[nH]2)CC1 (stereo not drawn)
EC50 [1]: 57 nM | Alpha 2C intrinsic activity [1]: 0.5 | EC50 [2]: 603 nM | Alpha 2B intrinsic activity [2]: 0.98

Fc1ccc(C2=C(C3CC3)CCC2Cc2c[nH]c(=S)[nH]2)cc1 (stereo not drawn)
EC50 [1]: 9 nM | Alpha 2C intrinsic activity [1]: 0.45 | EC50 [2]: 32 nM | Alpha 2B intrinsic activity [2]: 0.9

CC1=C(c2ccc(F)cc2)C(Cc2c[nH]c(=S)[nH]2)CCC1 (stereo not drawn)
EC50 [1]: 34.5 nM | Alpha 2C intrinsic activity [1]: 0.82 | EC50 [2]: 22.5 nM | Alpha 2B intrinsic activity [2]: 0.97

CC1=C(c2ccc(C#N)cc2)C(Cc2c[nH]c(=S)[nH]2)CC1 (stereo not drawn)
EC50 [1]: 41 nM | Alpha 2C intrinsic activity [1]: 0.85 | EC50 [2]: 22 nM | Alpha 2B intrinsic activity [2]: 0.93

CC1=C(c2ccc([N+](=O)[O-])cc2)C(Cc2c[nH]c(=S)[nH]2)CC1 (stereo not drawn)
EC50 [1]: 92 nM | EC50 [2]: 21 nM

CC1=C(c2cc(F)cc(F)c2)C(Cc2c[nH]c(=S)[nH]2)CC1 (stereo not drawn)
EC50 [1]: 47 nM | Alpha 2C intrinsic activity [1]: 1.11 | EC50 [2]: 115 nM | Alpha 2B intrinsic activity [2]: 0.89

CC1=C(c2ccc(F)cc2)C(Cc2c[nH]c(=S)[nH]2)CC1 (stereo not drawn)
EC50 [1]: 22 nM | Alpha 2C intrinsic activity [1]: 0.95 | EC50 [2]: 51 nM | Alpha 2B intrinsic activity [2]: 0.78
